Laboratory results reported in paper PMC7311426, “An amphipathic peptide with antibiotic activity against multidrug-resistant Gram-negative bacteria” (Nature Communications, 2020).
Read-outs that look alike come from different tables or passages of the source. Residues, ends and D or L forms follow the SMILES beside them.

Key:
[1] = In vivo toxicity and safety pharmacology, i.v./i.p./s.c.
C. albicans = test: microbe, parasite or virus in culture
C. neoformans = test: microbe, parasite or virus in culture
[2] = 7-day DRF inhalation toxicity; details: for AUC(0-t) / Cmax: Mouse inhalation, TK dose 20 mg/kg
E. coli = E. coli MDR/ESBL; after 20 passages + 3 drug-free passages
E. coli DSA 443 ESBL = test: Murine urinary tract infection (UTI) model; assay type: in vivo, E. coli in OF-1 mice; details: Prism column statistics
Protocol: Peritonitis and UTI murine models were performed at the Department of Microbiology & Infection Control, Statens Serum Institute, Copenhagen, Denmark, under approval by the National Committee of Animal Ethics, Denmark, and adhered to the standards of EU Directive 2010/63/EU. The mouse pneumonia model was performed by Evotec Ltd, United Kingdom, under UK Home Office Licenses and with local ethical committee clearance. All animal studies were contracted by Adenium Biotech ApS.
Peptides were prepared in Ringer’s acetate pH 6.0 (vehicle) at 34 mg mL^−1. Comparator antibiotics included meropenem (Meronem®, AstraZeneca), polymyxin B sulfate (Sigma) and tobramycin (Novartis).
The E. coli UTI in vivo model was prepared using an E. coli DSA 443 ESBL strain, in neutropenic outbred OF-1 female mice (Charles River, France). Starting 4 days before inoculation mice were given drinking water with 5% glucose. On day 0 mice were anaesthetized and inoculated with 50 μL bacterial suspension (1 × 10^9 CFU mL^−1) of E. coli DSA 443 ESBL, via a catheter in the urethra into the bladder. On days 1 and 2, mice were treated i.v. with vehicle (n = 18) or with twice-daily administrations of 5 mg kg^−1 AA139 (n = 12) or 40 mg kg^−1 meropenem (n = 12). Urine samples were taken on days 1–3 and on day 3 mice were killed and urine, kidneys, and bladder were collected for CFU counts on agar.

Work on CC(C)[C@@H]1NC(=O)[C@H](Cc2ccc(O)cc2)NC(=O)[C@H](Cc2c[nH]c3ccccc23)NC(=O)[C@@H](NC(=O)[C@H](Cc2ccccc2)NC(=O)CN)CSSC[C@@H](C(=O)N[C@@H](CC(N)=O)C(=O)O)NC(=O)[C@H](CCCNC(=N)N)NC(=O)[C@H](CCCNC(=N)N)NC(=O)[C@H](Cc2ccc(O)cc2)NC(=O)[C@@H]2CSSC[C@H](NC1=O)C(=O)N[C@@H](C)C(=O)N[C@@H](CCCNC(=N)N)C(=O)N[C@@H](CCCNC(=N)N)C(=O)N[C@@H](CC(N)=O)C(=O)NCC(=O)N[C@@H](C)C(=O)N[C@@H](CCCNC(=N)N)C(=O)N[C@@H](C(C)C)C(=O)N2 [AA139] (HELM PEPTIDE1{G.F.C.W.Y.V.C.A.R.R.N.G.A.R.V.C.Y.R.R.C.N}$PEPTIDE1,PEPTIDE1,3:R3-20:R3|PEPTIDE1,PEPTIDE1,7:R3-16:R3$$$V2.0) yielded an NOAEL in mice ([1]; 7-day or 14-day repeated 2 h i.v. infusion once or twice daily) of 20 mg kg^−1 per day, an MTD ([1]; mouse, in vivo, ip) of 20 mg/kg and an MTD ([1]; mouse, in vivo, iv) of 15 mg/kg. For the same compound, the MTD at 168 h ([1]; mouse, in vivo, iv) was 25 mg/kg, the AUC(0-t) ([1]; mouse, in vivo, iv, 20 mg/kg) was 28000 ng·h/mL and the Cmax ([1]; mouse, in vivo, iv, 20 mg/kg, Cmax, Mouse, 14-day iv toxicity, GLP, TK dose 20 mg/kg, Day 1) was 11600 ng/mL. The Cmax ([1]; mouse, in vivo, iv, 20 mg/kg, Cmax, Mouse, 14-day iv toxicity, GLP, TK dose 20 mg/kg, Day 14) was 9600 ng/mL, the AUC(0-inf) ([1]; mouse, in vivo, iv, 29 mg/kg) was 43800 ng·h/mL and the Cmax ([1]; mouse, in vivo, iv, 29 mg/kg) was 7500 ng/mL. For the same compound, the NOAEL at 168 h ([1]; mouse, in vivo, iv, NOAEL, 7-day iv MTD, IV 2-h infusion, doses 20, 25, 30) was 20 mg/kg, the NOAEL at 336 h ([1]; mouse, in vivo, iv, NOAEL, 14-day iv toxicity, GLP, IV 2-h infusion, 0, 10, 15, 20 BID) was 40 mg/kg/day and the NOAEL ([1]; mouse, in vivo, iv, NOAEL, CNS & respiratory safety pharmacology iv, IV 2-h infusion, doses 0, 15, 20, 25) was 20 mg/kg. For the same compound, the NOAEL ([1]; mouse, in vivo, iv, NOAEL, single-dose iv MTD, doses 0, 5, 7.5, 10, 15, 20) was 5 mg/kg, the MTD ([1]; mouse, in vivo, sc, 100 mg/kg) was 100 mg/kg and the “BMD MIC” value (C. albicans) was ≥32 µg/mL. The “BMD MIC” value (C. albicans; 24 h) was 64 µg/mL, the “BMD MIC” value (C. neoformans) was 1 µg/mL and the “MIC against Cryptococcus neoformans” value (C. neoformans) was 1 to 4 µg/mL. For the same compound, the “AUC(0-t)” value ([2]; Day 1 ELF) was 39800 ng·h/mL, the Cmax ([2]; Day 1 ELF) was 8200 ng/mL and the “AUC(0-t)” value ([2]; Day 7 ELF) was 137000 ng·h/mL. For the same compound, the Cmax ([2]; Day 7 ELF) was 42400 ng/mL, the “NOAEL in mice, aerosol inhalation” value ([2]; aerosol inhalation over 7 days) was 20 mg kg^−1 per day and the NOAEL at 168 h ([2]; mouse, in vivo, inhaled or intranasal) was 20 mg/kg. For the same compound, the AUC(0-t) ([2]; mouse, plasma, inhaled or intranasal, 20 mg/kg, AUC 0-t, Day 1 Plasma) was 2600 ng·h/mL, the AUC(0-t) ([2]; mouse, plasma, inhaled or intranasal, 20 mg/kg, AUC 0-t, Day 7 Plasma) was 1400 ng·h/mL and the Cmax ([2]; mouse, plasma, inhaled or intranasal, 20 mg/kg, Cmax, Day 1 Plasma) was 950 ng/mL. For the same compound, the Cmax ([2]; mouse, plasma, inhaled or intranasal, 20 mg/kg, Cmax, Day 7 Plasma) was 470 ng/mL and the “Final MIC” value (E. coli) was 1 µg/mL.

In the case of C[C@@H](O)[C@H]1C(=O)N2C(C(=O)O)=C(S[C@@H]3CN[C@H](C(=O)N(C)C)C3)[C@H](C)[C@H]12 [Meropenem, meropenem, reference compound], the “DAY 3 BLADDER, Median” value (E. coli DSA 443 ESBL; ESBL E. coli DSA 443, Meropenem 40 mg kg-1, bladder, median of n = 12) is reported as 3.32, the “DAY 3 KIDNEY, Mean” value (E. coli DSA 443 ESBL; ESBL E. coli DSA 443, Meropenem 40 mg kg-1, kidney, mean of n = 12) is reported as 1.644 and the “DAY 3 KIDNEY, Median” value (E. coli DSA 443 ESBL; ESBL E. coli DSA 443, Meropenem 40 mg kg-1, kidney, median of n = 12) is reported as 1.4. The “DAY 3 URINE, Mean” value (E. coli DSA 443 ESBL; ESBL E. coli DSA 443, Meropenem 40 mg kg-1, urine, mean of n = 11) was 1.229 and the “DAY 3 URINE, Median” value (E. coli DSA 443 ESBL; ESBL E. coli DSA 443, Meropenem 40 mg kg-1, urine, median of n = 11) was 1.
